Patent US7977304B2, “FK 228 derivates as HDAC inhibitors” (University of Southampton Highfield, priority 2005, dated 2011)

Tests used:
MCF7 breast cancer cells = experiment: Activity Assay 6: CyQuant cell growth inhibition, MCF7; format: cell-based; details: Homo sapiens, 144 h, MCF7, 6 days
Procedure: (§1) We analysed the ability of compounds to inhibit the in vitro growth of human cancer cells. Cell proliferation assays were performed using the CyQuant™ assay system (Molecular Probes, Inc. USA) according to the manufacturer's instructions. MCF7 breast, A2780 ovarian and PC3 and LNCAP prostate cancer cells were plated in 96 well plates, at a density of 1000 cells for MCF7 cells or 5000 cells for M780/PC3/LNCAP cells, in 100 μl of cell culture medium per well. Compounds were added a minimum of 5 hours later, in serial dilutions in cell culture medium, in 100 μl volumes at 2× final concentration. Cell culture medium was removed after 4 (A2780, PC3 or LNCAP cells) or 6 days (MCF7 cells) by inversion of the plate onto blotting paper and cells were gently washed once with 200 μl PBS. Plates were frozen immediately for a minimum of one hour at −80° C. and then thawed. 200 μl of 1× CyQuant cell lysis buffer supplemented with dye, made according to the manufacturer's instruction, was added immediately to each well and incubated at room temperature for 3-5 minutes. Fluorescence was then measured for each well using a Cytofluor II Fluoresence Multiwell Plate Reader and CytoFluor II software with filters at 480 nm for excitation and 520 nm for emission maxima. Cell proliferation was determined for mean values of duplicate samples as percentages relative to untreated cell samples (=100%). Growth inhibition curves were used to derive IC50 values.

[1] = test system: HDAC (Hela Nuclear Extract); experiment: Activity Assay 5: in vitro HDAC fluorescent activity assay (Biomol kit); format: biochemical; details: compounds reduced with DTT prior to analysis, 37° C., 1 hour, read-out: Inhibition of HDAC activity IC50
Procedure: We analysed the ability of compounds to inhibit in vitro HDAC activity. In vitro HDAC assays were performed using a HDAC fluorescent activity assay kit (Biomol, UK) according to the manufacturer's instructions. Compounds were reduced prior to analysis; 1 mM compound was reduced with 30 mM DTT in DMSO overnight at room temperature, protected from light. Reactions were then set up in a 96-well plate. […] Serial dilutions were set up for each compound. Reactions containing Hela extract only and assay buffer only were also set up. 25 μl diluted Fluor de Lys™ substrate (100-fold in assay buffer) was added to each reaction, which were then incubated at 37° C. for 1 hour. The reaction was stopped by addition of 50 μl Fluor de Lys™ Developer (20-fold dilution in assay buffer, plus TSA diluted 100-fold). […] Inhibition of in vitro HDAC activity was determined for mean values of duplicate samples as percentages relative to HeLa extract only reactions. IC50 values were calculated using GraphPad Prism software.

[2] = test system: PC3 prostate cancer cells; experiment: Activity Assay 6: CyQuant cell growth inhibition, PC3; format: cell-based; details: Homo sapiens, 96 h, PC3, 4 days
Procedure: as §1

[3] = test system: TNFα production from peripheral blood mononuclear cells (PBMCs); experiment: Activity Assay 7: LPS-induced TNFα secretion from PBMCs (QUANTIKINE immunoassay); format: cell-based; details: Homo sapiens, PBMC
Procedure: We analysed the ability of compounds to inhibit the production of TNFα from peripheral blood mononuclear cells (PBMCs). TNF-α immunoassays were carried out using the QUANTIKINE® Human TNF-α assay kit (R&D systems, Abingdon UK) according to the manufacturer's instructions. […] Compounds were added 1 hour later in volumes of 100 μl at 6× final concentration. Five hours later lipopolysaccharide (LSP, Sigma, Poole, UK) was added in a volume of 10 μl at 60× final concentration. Plates were mixed and left overnight at 37° C. 5% C02. Plates were centrifuged and cell supernatant was transferred to a new plate. The QUANTIKINE® assay reagents and standards were prepared according to the manufacturer instructions. The QUANTIKINE® assay plate was prepared by adding 50 μl of assay diluent RD1F into each well. This was followed by 200 μl of standard or 100 μl of calibrator diluent plus 100 μl cell supernatant; this was incubated for 2 hours at room temperature (RT). The plate was washed using wash buffer 4 times. After the final wash the plate was tapped on clean paper towel to remove all residual buffer. 200 μl of TNF-α conjugate was added to each well and incubated for 1 hour at RT. The plate was then washed as before. The required amount of substrate solution was prepared by adding equal volumes of colour reagents A and B, protecting from light, 200 μl of this mix was added to each well and incubated for 20 mins at RT, protected from light. 50 μl of stop solution was added to each well in the same order as the substrate solution and the plate was read on a Biorad 680 96 well plate reader (Bio-Rad, Hemel Hempstead, UK) at 450 nm with λ correction at 570 nm. TNF-α levels were determined for mean values of duplicate samples using absorbance in nm, calibration zero values were subtracted from all results to correct for the addition of calibrator diluent in the assay.

[4] = test system: A2780 ovarian cancer cells; experiment: Activity Assay 6: CyQuant cell growth inhibition, A2780; format: cell-based; details: Homo sapiens, 96 h, A2780, 4 days
Procedure: as §1

[5] = test system: LNCAP prostate cancer cells; experiment: Activity Assay 6: CyQuant cell growth inhibition, LNCAP; format: cell-based; details: Homo sapiens, 96 h, 4 days
Procedure: as §1

MCF7 cells = experiment: Activity Assay 3: cell cycle distribution and survival by propidium iodide flow cytometry; format: cell-based; details: MCF7, ~10×IC50 for growth inhibition, 24, 48 or 72 hours
Procedure: Method; MCF7 cells were incubated with indicated concentrations of compounds, or left untreated as a control, for various times, as detailed in the figure legends. Cells were collected and the proportion of cells in different phases of the cell cycle determined using propidium iodide staining and flow cytometry as previously described (Purohit et al., Int J Ca 85, 584-9 2000). The proportion of cells with <G0/G1 content (pre G0) relative to total cells was calculated first. The proportion of cells in different cell cycle phases (G0/G1, S, G2/M) was calculated as a proportion of all cells in the cell cycle (i.e., total cells minus cells with <G0/G1 content).
MCF7 cells were incubated with the indicated concentrations of compounds (each equivalent to ˜10×IC50 values for growth inhibition), or DMSO as a solvent control, for 24, 48 or 72 hours. The proportion of cells in different phases of the cell cycle was determined by flow cytometry. Data shown are mean values ±SD, derived from two separate experiments, relative to untreated cells which are normalised to 1.

| SMILES | IC50 (MCF7 breast cancer cells) [nM] | IC50 [1] [nM] | IC50 [2] [nM] | IC50 [4] [nM] | IC50 [5] [nM] | inhibition at 0.2 µM ([3]; Concentration 200 nM) [%] | inhibition at 0.0075 µM ([3]; Concentration 7.5 nM) [%] | cell cycle distribution and survival (MCF7 cells) |
| --- | --- | --- | --- | --- | --- | --- | --- | --- |
| CC(C)[C@H]1NC(=O)[C@H]2CSSCC/C=C/[C@H](CC(=O)N[C@H](C)C(=O)N2)OC(=O)[C@@H](C)NC1=O [Compound 9E, (E)-(1S,4R,7R,10S,21R)-7-isopropyl-4,21-dimethyl-2-oxa-12,13-dithia-5,8,20,23-tetraaza-bicyclo[8.7.6]tricos-16-ene-3,6,9,19,22-pentaone] | 117 | 87 | 296 | 651 | 1190 | 84 |  |  |
| CC(C)[C@H]1NC(=O)[C@H]2CSSCC/C=C/[C@H](CC(=O)N[C@H](CCC(=O)OC(C)(C)C)C(=O)N2)OC(=O)CNC1=O [Compound 9F, 3-((E)-(1S,7R,10S,21R)-7-Isopropyl-3,6,9,19,22-pentaoxo-2-oxa-12,13-dithia-5,8,20,23-tetraaza-bicyclo[8.7.6]tricos-16-en-21-yl)-propionic acid tert-butyl ester] | 1.6 | 8 | 0.8 | 3 | 6.7 |  | 68 |  |
| O=C(CCCCCCC(=O)Nc1ccccc1)NO [SAHA, Suberoylanilide hydroxamic acid, reference compound] |  |  |  |  |  |  |  | induce a predominant G2/M phase arrest and cell death |

The next lines start with results.

| IC50 (MCF7 breast cancer cells) [nM] | IC50 [1] [nM] | IC50 [2] [nM] | IC50 [4] [nM] | IC50 [5] [nM] | SMILES | inhibition at 0.2 µM ([3]; Concentration 200 nM) [%] | inhibition at 0.0075 µM ([3]; Concentration 7.5 nM) [%] | cell cycle distribution and survival (MCF7 cells) |
| --- | --- | --- | --- | --- | --- | --- | --- | --- |
| 2.9 | 25 |  |  |  | CC(C)[C@H]1NC(=O)[C@H]2CSSCC/C=C/[C@H](CC(=O)N[C@H](Cc3ccccc3)C(=O)N2)OC(=O)CNC1=O [Compound 9B, (E)-(1S,7R,10S,21R)-21-benzyl-7-isopropyl-2-oxa-12,13-dithia-5,8,20,23-tetraaza-bicyclo[8.7.6]tricos-16-ene-3,6,9,19,22-pentaone] |  |  |  |
| 5.2 | 9.9 |  |  |  | CC(C)[C@H]1NC(=O)C[C@H]2/C=C/CCSSC[C@@H](NC1=O)C(=O)N[C@H](C(C)C)C(=O)NCC(=O)O2 [Compound 9C, (E)-(1S,7R,10S,21R)-7,21-diisopropyl-2-oxa-12,13-dithia-5,8,20,23-tetraaza-bicyclo[8.7.6]tricos-16-ene-3,6,9,19,22-pentaone] |  |  |  |
| 457 | 1.7 |  |  |  | CC(C)[C@H]1NC(=O)[C@H]2CSSCC/C=C/[C@H](CC(=O)N[C@H](CCC(=O)O)C(=O)N2)OC(=O)CNC1=O [Compound 10F, 3-((E)-(1S,7R,10S,21R)-7-Isopropyl-3,6,9,19,22-pentaoxo-2-oxa-12,13-dithia-5,8,20,23-tetraaza-bicyclo[8.7.6]tricos-16-en-21-yl)-propionic acid] |  |  |  |
